The source of these data is US20250221953A1 (The University of Chicago, priority 2022, published 2025).

Data set [1] deals with Mouse CD4^+ T cell. Description: Second screen: IL-2 level of mouse CD4+ T cells.
Data set [2] relates to Jurkat T cells. The data set is classed as cell-based, human. The conditions noted are these: IL-2 production level in treated group compared to control group; 48 hours treatment, then anti-CD3/anti-CD28 12 hours.
In data set [3] the test system is Mouse CD8^+ T cell. The experiment in a line: Second screen: IL-2 level of mouse CD8+ T cells.
For data set [4], the system named is Mouse T cell. The experiment in a line: Second screen: IL-2 level of murine primary T cells. The class given is cell-based. From the text: Two preliminary screens were designed and performed.
For data set [5], the system named is mouse primary CD8^+ T cells. The experiment in a line: In vitro function of activated mouse primary CD8+ T cells (cytokines, Ki-67, apoptosis, p-CREB). The class given is cell-based. Particulars: for effect of inhibitor/modulator on TVA-enhanced activation of CD8+ T cells (IL-2, TNF-α, IFN-γ): added synchronized with 20 μM TVA for 24 hours, SCH-202676 200 nM, H-89 200 nM, 666-15 100 nM. The procedure: For experiments with live/dead criteria, cells were first stained with Fixable Viability Dyes (FVD) (Thermo Fisher Scientific) according to the manufacturer's instructions. Subsequent surface marker staining was performed in Flow Cytometry Staining Buffer (Thermo Fisher Scientific). Intracellular staining for flow panels containing nuclear proteins was performed using the eBioscience FoxP3/Transcription Factor Staining Buffer Set (Thermo Fisher Scientific) according to the manufacturer's instructions. For intracellular staining of cytoplasmic proteins, the Fixation/Permeabilization Solution Kit (BD Biosciences) was used according to the manufacturer's instructions. […] The cell pellets were washed again with FACS buffer, centrifuged at 300×g for 5 minutes, and incubated with antibodies in FACS buffer for 45 minutes-1 hour at room temperature. […] Treatment with sulfosuccinimidyl oleate (SSO) was performed by incubating cells with 100 μM SSO for 24 hours.

Data set [6] deals with B cell acute lymphoblastic leukemia (B-ALL). The conditions noted are these: Kantarjian et al., 2017; cited from earlier work.
Data set [7] deals with mouse melanoma B16 cells with CD8+ T cells. Description: CD8+ T cell mediated killing of B16 cells in vitro. The data set is classed as cell-based.
The test system of data set [8] is murine melanoma B16 cells. The experiment in a line: Oral gavage in syngeneic mice inoculated with B16 cells. The data set is classed as in vivo, mouse.
Data set [9] deals with B16F10 tumor. The experiment in a line: Mouse tumor model, B16F10. The data set is classed as in vivo. Particulars: B16F10 tumor-bearing C57BL/6 mice on enriched diet vs control diet.
Experimental: For C57BL/6 mice and TCR-a KO mice tumor model, mice were anesthetized with isoflurane, shaved the injection site, and then injected subcutaneously in the abdominal flank with 1×10^5 B16F10, MC38, or LLC1 cells, or in the mammary gland with 2×10^5 E0771 cells. C57BL/6 nude mice were injected subcutaneously in the abdominal flank with 1×10^5B16F10 cells. […] Tumors were measured the tumors using a caliper every 2-3 days. Tumor volumes were calculated using the following formula: length×width×[(length×width)^0.5]×π/6. Mice were euthanized at humane endpoints or day 11-15 for tissue collection.
The mice were treated once a day for 5 consecutive days per week for 2 weeks. Tumors were measured the tumors using a caliper every 2-3 days. Tumor volumes were calculated using the following formula: length×width×[(length×width)^0.5]×π/6. Mice were euthanized at humane endpoints.
For anti-PD-1 treatment mouse model, 6-8 weeks old C57BL/6 mice were anesthetized with isoflurane, shaved the injection site, and then injected subcutaneously in the abdominal flank with 1×10^5 B16F10 for tumor development. […] In day 3, 6, 9, 12, and 15, 250 μg anti-PD-1 (BioXCell) or IgG control (BioXCell) was injected intraperitoneally per mouse. Tumors were measured the tumors using a caliper every 2-3 days. Tumor volumes were calculated using the following formula: length×width×[(length×width)^0.5]×π/6. […]
Data set [10] has as its system mouse primary CD8^+ T cells. Description: 13C1-TVA metabolic flux analysis by GC-MS. The class given is cell-based. The conditions noted are these: 100 μM SSO, 24 hours.
Experimental: Samples were kept at room temperature after centrifugation to form two distinct phases. 650 μL of the bottom dichloromethane fraction was transferred into a new glass tube and dried with nitrogen gas to obtain a lipid fraction pellet. […] FAME cleanup was applied if analyzing animal tissues (FAME Cleanup: a Florisil column was pre-conditioned with 3 mL of hexane, added methyl ester, and eluted twice with 1 mL isohexane-diethyl ether (95:5 v/v), with drying down in between elutions). Otherwise, samples were dried down under nitrogen and re-suspended in 50 μL of hexane to load onto gas chromatography (GC) mass spectrometry (MS). […] Metabolite levels and mass isotopomer distributions of derivatized fragments were analyzed with an in-house MATLAB script, which integrated the metabolite fragment ions and corrected for natural isotope abundances.

As for `Cc1cn([C@H]2C[C@H](O)[C@@H](CO)O2)c(=O)[nH]c1=O` [THYMIDINE], in data set [1], the “Mouse CD4^+ T cell IL-2 level changes after treatment” value (“Mouse CD4^+ T cell IL-2 level changes” below) was found to be 135.8%. For the same compound, the “Relative changed percentage (%)” value in data set [2] was found to be 39.63%. Moreover, the “Mouse CD8^+ T cell IL-2 level changes after treatment” value (“Mouse CD8^+ T cell IL-2 level changes” below) in data set [3] was 128.9%. Also, the “Mouse T cell IL-2 level changes after treatment” value (“Mouse T cell IL-2 level changes” below) in [4] is listed as 145.6%.
Regarding `Br.CN=c1nc(-c2ccccc2)n(-c2ccccc2)s1` [SCH 202676 hydrobromide, reference compound], the “effect of inhibitor/modulator on TVA-enhanced activation of CD8+ T cells (IL-2, TNF-α, IFN-γ)” value in [5] was “abolishes TVA-enhanced activation of CD8^+ T cells”.
“Blinatumomab: bi-specific T-cell engager (BiTE) targeting CD19 antigen on B cells and CD3 on T cells”: the “response rate in relapsed disease” value in data set [6] was below 50%.
For `CC(=O)O` [acetate, reference compound], in data set [5] (TVA 12 hours, then 20 mM acetate 12 hours), the “enhanced CD8+ T cell activation by pre-treatment with 20 μM TVA (TVA first)” value is recorded as “cannot be reversed by 20 mM acetate”. In addition, the “CD8+ T cell activation (TNF-α, IFN-γ levels)” value in data set [5] (increasing concentrations of acetate up to 20 mM) is “attenuate CD8^+ T cell activation”.
As to “C-PEPTIDE FRAGMENT 3-33, HUMAN/C-peptide [#203]”, in [7], the “CD8+ T cells mediated killing of mouse melanoma B16 cells” value is “enhances CD8+ T cells mediated killing of mouse melanoma B16 cells”; the “killing and CD8 T cell function compared with TVA” value was “better than cells treated with TVA”. In addition, the anti-tumor immunity result in data set [8] is recorded as “increased anti-tumor immunity in a dose dependent manner”.
Regarding D-Glycerate 2,3-diphosphate sodium salt, in data set [1], the “Mouse CD4^+ T cell IL-2 level changes” value was 97.9%. Also, the “Relative changed percentage (%)” value in data set [2] came to 47.74%. Besides, in data set [3], the “Mouse CD8^+ T cell IL-2 level changes” value was 121.4%. Also, the “Mouse T cell IL-2 level changes” value in data set [4] is recorded as 106.2%.
For `Nc1nc2nc[nH]c2c(=O)[nH]1` [GUANINE] the same measures were 110.4%, 15.14%, 150.8% and 148.6%.
With `Nc1ccc(C(=O)O)cc1` [p-Aminobenzoic Acid], the “Mouse CD4^+ T cell IL-2 level changes” value in [1] came out at 140.5%. Also, the “Mouse CD8^+ T cell IL-2 level changes” value in data set [3] was determined as 145.2%. The “Mouse T cell IL-2 level changes” value in [4] is reported as 160.3%.
Regarding `Cl.Cl.O=S(=O)(NCCNC/C=C/c1ccc(Br)cc1)c1cccc2cnccc12` [Compound H89, H 89 Dihydrochloride, reference compound], the “effect of inhibitor/modulator on TVA-enhanced activation of CD8+ T cells (IL-2, TNF-α, IFN-γ)” value in data set [5] was “similarly abolishes TVA-enhanced activation of CD8^+ T cells”.
With `OC[C@H]1OC(O)[C@H](O)[C@@H](O)[C@H]1O` (stereo partly drawn) [D(+)-GALACTOSE ANHYDROUS], in [1], the “Mouse CD4^+ T cell IL-2 level changes” value came out at 110.4%. Moreover, the “Relative changed percentage (%)” value in [2] worked out at 35.84%. Also, the “Mouse CD8^+ T cell IL-2 level changes” value in [3] was determined as 130.3%. In addition, the “Mouse T cell IL-2 level changes” value in data set [4] was 130.1%.
With `CCCCCC/C=C\CCCCCCCCCC(=O)O` [CVA, cis-Vaccenic acid, reference compound], in data set [9], the “body weights of mice” value is recorded as “did not alter body weights”.
As to `CCCCCCCC/C=C\CCCCCCCC(=O)ON1C(=O)CC(S(=O)(=O)O)C1=O` (stereo not drawn) [SSO, sulfosuccinimidyl oleate, reference compound], in data set [5] (100 μM SSO, TNF-α, IFN-γ), the “effect of SSO on TVA-dependent CD8+ T cell activation” value is “does not affect TVA-dependent CD8^+ T cell activation”. Further, the “effect on import of 13C-TVA into CD8+ T cells” value in data set [10] was “drastically reduced import of ^13C-TVA”.
As to `COc1cc(/C=C/c2ccc(O)cc2)cc(OC)c1` [Pterostibene], the “Relative changed percentage (%)” value in [2] came out at 6.874%.
On the same count and under the same terms, in the case of `[Cl-].[Na+]` [SODIUM CHLORIDE] it was 36.53%.
With `NCC(=O)O` [Glycine], the “Relative changed percentage (%)” value in data set [2] is recorded as −8.966%.
Take `OC[C@H]1O[C@@H](Oc2c[nH]c3ccccc23)[C@H](O)[C@@H](O)[C@@H]1O` [INDOXYL beta-D-GLUCOSIDE]: the “Relative changed percentage (%)” value in data set [2] amounted to 30.46%.
The same measure, in the same setting: in the case of `[Br-].[Na+]` [SODIUM BROMIDE] it was −26.98%.
Still for that read-out and setting: in the case of `[Cl-].[Cl-].[Sr+2]` [strontium chloride] it was 30.89%.
The same measure, in the same setting: in the case of `NCCc1c[nH]cn1` [HISTAMINE FREE BASE CRYSTALLINE, HISTAMINE FREE BASE] it was −3.594%; in that of `CC(O)CC(=O)O` (stereo not drawn) [3-HYDROXYBUTYRIC ACID], 5.082%.
Consider `CC[C@H](C)[C@H](NC(=O)[C@H](Cc1ccc(O)cc1)NC(=O)[C@@H](NC(=O)[C@H](CCCNC(=N)N)NC(=O)[C@@H](N)CC(=O)O)C(C)C)C(=O)N[C@@H](Cc1cnc[nH]1)C(=O)N1CCC[C@H]1C(=O)N[C@@H](Cc1ccccc1)C(=O)O` [ANGIOTENSIN II HUMAN], for which, in data set [2], the “Relative changed percentage (%)” value came out at 17.25%.
As for `O=C(O)[C@@H]1CCCN1` [L-Proline], the “Relative changed percentage (%)” value in [2] is recorded as −3.935%.
On the same count and under the same terms, next, `C[C@]12CCC(=O)C=C1CC[C@@H]1[C@@H]2C(=O)C[C@@]2(C)[C@H]1CC[C@]2(O)C(=O)CO` [CORTISONE]: −12.29%.
The same measure, in the same setting: next, `O=C(O)CC(O)C(=O)O` (racemic) [DL-MALIC ACID]: 40.01%.
